Reference: patent US5767149A, “α-glycosyl-L-ascorbic acid, and it's preparation and uses” (priority 1989, dated 1998)

What was measured:
dd mice = test: Acute toxicity, oral; assay type: in vivo, mouse
Excerpt: A high-purity α-D-glucosyl-L-ascorbic acid specimen, prepared by the method in Experiment 2(2), was orally administered to 7 week-old dd mice for acute toxicity test. As the result, no mouse died when administered with up to […] of the specimen, and higher dose was difficult.

human fibroblast cell = test: Collagenic activity in human fibroblast cell; assay type: cell-based; conditions: 0.25 mM, 24 hours
Procedure: (b) Collagenic activity 2-O-α-D-Glucosyl-L-ascorbic acid, 6-O-α-D-glucosyl-L-ascorbic acid and L-ascorbic acid were tested for their collagenic activity. A human fibroblast cell, cell density of 7×10^4 cells/plate, was cultured in Eagle's minimal essential medium supplemented with 10% FCS for 1 week, added with 4 μCi/ml ^3 H-proline, 20 μg/ml of β-aminopropionitrile and 0.25 mM of either sample, and cultured for an additional 24 hours. The resultant was then added with 10 w/v % trichloroacetic acid to recover the collagenous element in the culture, followed by lyophilization. The resultant specimen was dissolved, and the solution was adjusted to an appropriate pH, treated with a collagenase (Type III) at 37° C. for 90 minutes, and centrifuged. Collagenic activity was estimated by determining the radio activity in the supernatant.

Solubility in solvents = assay type: physicochemical
[1] = Hydrolysis by 1N hydrochloric acid at 100° C.; assay type: physicochemical; conditions: 5 minutes
Procedure: (§1) (a) Hydrolyzable by α-glucosidase or by treatment with 1N hydrochloric acid at 100° C. for 5 minutes to form L-ascorbic acid and D-glucose at a molar ratio of 1:1.

physchem = assay type: physicochemical; conditions: for Remaining ratio: 0 min, 70 uM; for remaining at 0.25 h, 70 µM / remaining at 0.5 h, 70 µM / remaining at 1 h, 70 µM / remaining at 21 h, 70 µM: water
Procedure: (c) 2-O-α-D-Glucosyl-L-ascorbic acid was compared respectively to the 6-O-α-D-glucosyl-L-ascorbic acid disclosed in Japanese Patent Publication No. 38,158/73, and L-ascorbic acid for their stability in aqueous solution. More particularly, each sample was adjusted to a concentration of 70 micromoles and to pH 7.0 or 2.0, placed in a cuvette, and measured for its absorbance at either 260 nm and pH 7.0 or at 245 nm and pH 2.0 while keeping the solution at 20° C. The remaining ratio (%) was calculated with the absorbance.

β-glucosidase = test: Hydrolysis by β-glucosidase; assay type: biochemical
Excerpt: (b) Unhydrolyzable by β-glucosidase.

α-glucosidase = test: Hydrolysis by α-glucosidase; assay type: biochemical; conditions: forms L-ascorbic acid and D-glucose, molar ratio 1:1
Procedure: as §1

cytochrome C = test: Reducing activity on cytochrome C; assay type: biochemical; conditions: for Reducing activity on cytochrome C: intact sample, 10 microliters of 10 mM, pH 7.8
[2] = Coloring reaction: direct reducing activity on 2,6-dichlorophenolindophenol

Remaining ratio (physchem; pH 2) [%]	Remaining ratio (physchem; pH 7) [%]	remaining at 0.25 h, 70 µM (physchem; pH 2) [%]	remaining at 0.5 h, 70 µM (physchem; pH 2) [%]	remaining at 1 h, 70 µM (physchem; pH 2) [%]	remaining at 21 h, 70 µM (physchem; pH 2) [%]	remaining at 0.25 h, 70 µM (physchem; pH 7) [%]	remaining at 0.5 h, 70 µM (physchem; pH 7) [%]	remaining at 1 h, 70 µM (physchem; pH 7) [%]	remaining at 21 h, 70 µM (physchem; pH 7) [%]	Compound	Collagenic activity (human fibroblast cell)	Reducing activity on cytochrome C (cytochrome C)	other results
100	100	99	98	91	55	58	36	17	8	O=C1O[C@H]([C@@H](O)CO[C@H]2O[C@H](CO)[C@@H](O)[C@H](O)[C@H]2O)C(O)=C1O [6-O-α-D-glucosyl-L-ascorbic acid]	slightly inferior in collagenic activity to that of 2-O-α-D-glucosyl-L-ascorbic acid	unlike 6-O-α-D-glucosyl-L-ascorbic acid and L-ascorbic acid, 2-O-α-D-glucosyl-L-ascorbic acid exhibited no reducing activity	–
100	100	99	97	87	10	47	20	8	2	O=C1O[C@H]([C@@H](O)CO)C(O)=C1O [L-ascorbic acid]	–	unlike 6-O-α-D-glucosyl-L-ascorbic acid and L-ascorbic acid, 2-O-α-D-glucosyl-L-ascorbic acid exhibited no reducing activity	–

Compound	Remaining ratio (physchem; pH 2) [%]	Remaining ratio (physchem; pH 7) [%]	remaining at 0.25 h, 70 µM (physchem; pH 2) [%]	remaining at 0.5 h, 70 µM (physchem; pH 2) [%]	remaining at 1 h, 70 µM (physchem; pH 2) [%]	remaining at 21 h, 70 µM (physchem; pH 2) [%]	remaining at 0.25 h, 70 µM (physchem; pH 7) [%]	remaining at 0.5 h, 70 µM (physchem; pH 7) [%]	remaining at 1 h, 70 µM (physchem; pH 7) [%]	remaining at 21 h, 70 µM (physchem; pH 7) [%]	Collagenic activity (human fibroblast cell)	Reducing activity on cytochrome C (cytochrome C)	other results
O=C1O[C@H]([C@@H](O)CO)C(O)=C1O[C@H]1O[C@H](CO)[C@@H](O)[C@H](O)[C@H]1O [2-O-α-D-glucosyl-L-ascorbic acid]	100	100	100	100	100	100	100	100	100	100	the same collagenic activity as that of L-ascorbic acid	no reducing activity	Highest dose administered without death (dd mice; 7 week-old dd mice, higher dose was difficult): ≥ 5 g; Mortality (dd mice; 7 week-old dd mice, up to 5 g): no mouse died; Toxicity (dd mice; dd mice): extremely low in toxicity; Solubility (Solubility in solvents; 0.1N acetic acid): Readily soluble; Solubility (Solubility in solvents; 0.1N sodium hydroxide): Readily soluble; Solubility (Solubility in solvents; benzene): insoluble; Solubility (Solubility in solvents; chloroform): insoluble; Solubility (Solubility in solvents; ethanol): soluble; Solubility (Solubility in solvents; ether): insoluble; Solubility (Solubility in solvents; methanol): soluble; Solubility (Solubility in solvents; water): Readily soluble; Hydrolysis by acid [1]: Hydrolyzable; Stability in aqueous solution (physchem): extremely stable in aqueous solution; Hydrolysis by β-glucosidase (β-glucosidase): Unhydrolyzable; Hydrolysis by α-glucosidase (α-glucosidase): Hydrolyzable; Reducing activity on cytochrome C after hydrolysis (cytochrome C; hydrolyzed by α-glucosidase specimen): exhibited a reducing activity; Direct reducing activity (2,6-dichlorophenolindophenol) [2]: no direct reducing activity, and not reducing and decoloring 2,6-dichlorophenolindophenol
